Experimental data reported in US8796246B2, “9, 10-secopregnane derivative and pharmaceutical” (Nippon Shinyaku Co., Ltd., priority 2006, dated 2014).

Experiments:
[1] = system: human acute myelogenous leukemia cell line HL-60; assay: Ability to induce differentiation of HL-60 cells (oxygen radical production after phorbol ester, WST-1); format: cell-based; details: 72 hours incubation, then WST-1 and phorbol 12,13-didecanoate for 4 hours, absorbance at 450 nm
Description: It is known that the human acute myelogenous leukemia cell line HL-60is differentiated into neutrophil-like cells by active vitamin D or the like. Thus, the cells after the differentiation begin to express a surface marker such as CD11and CD32and, at the same time, they produce an oxygen radical by stimulation with a phorbol ester or the like. In this test, the above-mentioned property was utilized. As an index of the ability to induce differentiation of the HL-60cells, the amount of the oxygen radical produced by stimulation with a phorbol ester was measured, and the compounds of the invention mentioned in Examples were compared with maxacalcitol with respect to the vitamin D3activity thereof. In use of commercial reagents and kits, if any, the indications attached thereto were referred to.
HL-60cells (supplied from ATCC) were seeded on a 96-well plate at 5×10^3cells/100μL/well and a test compound in two-fold dilution series from 10^−7M was added to the second to the twelfth rows (maximum concentration: the second row). The first row was used for blank. After incubation for 72 hours under a moisturized condition in the presence of 5% CO2 at 37° C. using a CO2 incubator, 10 μL of PBS containing 50 mM WST-1 (manufactured by Takara Bio) and 10 μM phorbol 12,13-didecanoate (manufactured by SIGMA) were added to each well followed by further incubation for 4 hours. Absorbance (reference wavelength: […]) at […] of the WST-1 formazane dye generated by conversion from WST-1 by oxygen radical produced from the differentiated HL-60 cells was measured by a Benchmark microplate reader (manufactured by BioRad). An absorbance meter control software MPM3 (manufactured by BioRad) was used and, from a concentration-absorbance curve, the 50%-maximal effective concentration (hereinafter, referred to as “EC50”) of each was determined by a logistic curve regression.

[2] = Metabolic rate in human liver microsome; format: in vitro ADME; details: pooled human liver microsome 1 mg/mL protein, NADPH-regenerating system, 37° C., 2-60 minutes, HPLC
Method: The compounds of the invention mentioned in Examples and maxacalcitol were compared with each other with respect to the metabolic rate in human liver microsome.
As to the pooled human liver microsome (HHM-0323), those manufactured by Tissue Transformation Technologies were used. A 0.25 M potassium phosphate buffer (pH 7.4) (200 μL), 5 μL of a 250 μM solution of each compound to be tested in DMSO, 50 μL of an NADPH-regenerating system (where 20 mg of β-NADP^+, 70 mg of glucose-6-phosphate, 40 units of glucose-6-phosphate dehydrogenase and 20 mg of magnesium chloride were dissolved in 1 mL of distilled water) and 220 μL of distilled water were added to a microtube and the mixture was subjected to a preincubation for 5 minutes at 37° C. Reaction was started by an addition of 25 μL of human liver microsome (final concentration of protein: 1 mg/mL). Incubation was performed for 2, 10, 30 or 60 minutes and the reaction was stopped by an addition of 500 μL of acetonitrile. After centrifugation at 13,000 rpm for 5 minutes, each test compound in the supernatant (25 μL) was measured by HPLC under the following conditions.
Inertsil ODS-3 (4.6×150 mm; GL Science) was used as a column. With regard to the mobile phase, a solution A (acetonitrile/0.1% aqueous solution of ammonium acetate=10/90) and a solution B (acetonitrile/0.1% aqueous solution of ammonium acetate=90/10) were used under the linear gradient conditions mentioned in Tables 5 to 7. The column temperature, the flow rate and the wavelength for detection were set at 40° C., 1.0 mL/min. and UV 250 or 270 nm, respectively.
The compound mentioned in Example 38 was analyzed under the condition shown in Table 6; the compounds mentioned in Examples 55, 56, 68, 69, 72 and 73 were under the condition shown in Table 7; and the other compounds were under the condition shown in Table 5.
The compounds described in Examples 40, 43 to 48, 50, 55, 56, 58, 60, 61, 63 and 65 to 73 were analyzed under the condition of UV 250 nm; and the other compounds were under the condition of UV 270 nm.
From the HPLC test results as above, the metabolic rate of the test compound was calculated.

Compound | EC50 [1] | Metabolic Rate [2]
CC(OC(=O)CCC(C)(C)O)C1=CCC2C(=CC=C3CC(O)C(C)C(O)C3)CCCC12C [Compound of Example 62, (1R,2α,3R,20S)-19-nor-2-methyl-20-(4-hydroxy-4-methylpentanoyloxy)-9,10-secopregna-5Z,7E,16-triene-1,3-diol] | 0.23 nM | 24 pmol/min/mg
C=C1C(O)CC(=CC=C2CCCC3(C)C2CCC3C(C)OC(=O)C=CC(O)(CC)CC)CC1O [Compound of Example 45, (1R,3R,20S)-2-methylene-19-nor-20-[(2E)-4-ethyl-4-hydroxyhex-2-enoyloxy]-9,10-secopregna-5Z,7E-diene-1,3-diol] | 0.31 nM | 40 pmol/min/mg
C=C1C(=CC=C2CCCC3(C)C2CCC3C(C)OC(=O)CCCC(O)(CC)CC)CC(O)CC1O [Compound of Example 34, (1S,3R,20S)-20-(5-hydroxy-5-ethylheptanoyloxy)-9,10-secopregna-5Z,7E,10(19)-triene-1,3-diol] | 4.2 nM | 36 pmol/min/mg
C=C1C(O)CC(=CC=C2CCCC3(C)C(C(C)OC(=O)CCC(C)(O)C(F)(F)F)=CCC23)CC1O [Compound of Example 56, (1R,3R,20S)-19-nor-2-methylene-20-[(4R)-5,5,5-trifluoro-4-hydroxy-4-methylpentanoyloxy]-9,10-secopregna-5Z,7E,16-triene-1,3-diol] | 0.47 nM | 102 pmol/min/mg
C=C1C(=CC=C2CCCC3(C)C2CCC3C(C)OC(=O)CC(C)(O)C(F)(F)F)CC(O)CC1O [Compound of Example 4, (1S,3R,20S)-20-(4,4,4-trifluoro-3-hydroxy-3-methylbutanoyloxy)-9,10-secopregna-5Z,7E,10(19)-triene-1,3-diol] | 0.31 nM | 
CC(OC(=O)CCC(C)(C)O)C1=CCC2C(=CC=C3CC(O)CC(O)C3)CCCC12C [Compound of Example 46, (1R,3R,20S)-19-nor-20-(4-hydroxy-4-methylpentanoyloxy)-9,10-secopregna-5Z,7E,16-triene-1,3-diol] | 1.4 nM | 45 pmol/min/mg
C=C1C(=CC=C2CCCC3(C)C2CCC3C(C)OC(=O)CCC(O)(CC)CC)CC(O)CC1O [Compound of Example 13, (1S,3R,20S)-20-(4-ethyl-4-hydroxyhexanoyloxy)-9,10-secopregna-5Z,7E,10(19)-triene-1,3-diol] | 0.53 nM | 38 pmol/min/mg
C=C1C(=CC=C2CCCC3(C)C2CCC3C(C)OC(=O)C=CC(C)(C)O)CC(O)CC1O [Compound of Example 8, (1S,3R,20S)-20-[(2E)-4-hydroxy-4-methylpent-2-enoyloxy]-9,10-secopregna-5Z,7E,10(19)-triene-1,3-diol] | 3.4 nM | 38 pmol/min/mg
CC(OC(=O)CCC(C)(C)O)C1CCC2C(=CC=C3CC(O)CC(O)C3)CCCC21C [Compound of Example 40, (1R,3R,20S)-19-nor-20-(4-hydroxy-4-methylpentanoyloxy)-9,10-secopregna-5Z,7E-diene-1,3-diol] | 1.6 nM | 65 pmol/min/mg
C=C1C(=CC=C2CCCC3(C)C2CCC3C(C)OC(=O)CC(=O)C(C)(O)C(F)(F)F)CC(O)CC1O [Compound of Example 38, (1S,3R,20S)-20-(5,5,5-trifluoro-4-hydroxy-4-methyl-3-oxopentanoyloxy)-9,10-secopregna-5Z,7E,10(19)-triene-1,3-diol] | 2.3 nM | 33 pmol/min/mg
C=C1C(=CC=C2CCCC3(C)C2CCC3C(C)OC(=O)CC(=O)C(C)(C)O)CC(O)CC1O [Compound of Example 27, (1S,3R,20S)-20-(4-hydroxy-4-methyl-3-oxo-pentanoyloxy)-9,10-secopregna-5Z,7E,10(19)-triene-1,3-diol] | 4.1 nM | 
CCC(O)(C=CC(=O)OC(C)C1CCC2C(=CC=C3CC(O)C(C)C(O)C3)CCCC21C)CC [Compound of Example 65, (1R,2α,3R,20S)-2-methyl-19-nor-20-[(2E)-4-ethyl-4-hydroxyhex-2-enoyloxy]-9,10-secopregna-5Z,7E-diene-1,3-diol] | 0.29 nM | 29 pmol/min/mg
C=C1C(=CC=C2CCCC3(C)C2CCC3C(C)OC(=O)CCCC(C)(C)O)CC(O)CC1O [Compound of Example 3, (1S,3R,20S)-20-(5-hydroxy-5-methylhexanoyloxy)-9,10-secopregna-5Z,7E,10(19)-triene-1,3-diol] | 4.5 nM | 22 pmol/min/mg
CC(OC(=O)CCC(C)(O)C(F)(F)F)C1=CCC2C(=CC=C3CC(O)CC(O)C3)CCCC12C [Compound of Example 68, (1R,3R,20S)-19-nor-20-[(4S)-5,5,5-trifluoro-4-hydroxy-4-methylpentanoyloxy]-9,10-secopregna-5Z,7E,16-triene-1,3-diol] | 0.23 nM | 126 pmol/min/mg
C=C1C(O)CC(=CC=C2CCCC3(C)C2CCC3C(C)OC(=O)CCC(C)(O)C(F)(F)F)CC1O [Compound of Example 44, (1R,3R,20S)-2-methylene-19-nor-20-(5,5,5-trifluoro-4-hydroxy-4-methylpentanoyloxy)-9,10-secopregna-5Z,7E-diene-1,3-diol] | 0.25 nM | 95 pmol/min/mg
C=C1C(=CC=C2CCCC3(C)C2CCC3C(C)OC(=O)CC(=O)C(O)(CC)CC)CC(O)CC1O [Compound of Example 28, (1S,3R,20S)-20-(4-ethyl-4-hydroxy-3-oxo-hexanoyloxy)-9,10-secopregna-5Z,7E,10(19)-triene-1,3-diol] | 1.7 nM | 
C=C1C(O)CC(=CC=C2CCCC3(C)C2CCC3C(C)OC(=O)CCCC(C)(C)O)CC1O [Compound of Example 57, (1R,3R,20S)-2-methylene-19-nor-20-(5-hydroxy-5-methylhexanoyloxy)-9,10-secopregna-5Z,7E-diene-1,3-diol] | 0.53 nM | 
(1S,3R,20S)-20-(5-hydroxy-5-methylheptanoyloxy)-9,10-secopregna-5Z,7E,10(19)-triene-1,3-diol [Compound of Example 11] | 2.2 nM | 
C=C1C(=CC=C2CCCC3(C)C2CCC3C(C)OC(=O)CN(C)CC(C)(C)O)CC(O)CC1O [Compound of Example 19, (1S,3R,20S)-20-[N-(2-hydroxy-2-methylpropyl)-N-methyl-2-aminoacetyloxy]-9,10-secopregna-5Z,7E,10(19)-triene-1,3-diol] | 2.4 nM | 
C=C1C(=CC=C2CCCC3(C)C2CCC3C(C)OC(=O)CC(O)(C(F)(F)F)C(F)(F)F)CC(O)CC1O [Compound of Example 7, (1S,3R,20S)-20-[4,4,4-trifluoro-3-hydroxy-3-(trifluoromethyl)butanoyloxy]-9,10-secopregna-5Z,7E,10(19)-triene-1,3-diol] | 0.38 nM | 
C=C1C(=CC=C2CCCC3(C)C2CCC3C(C)OC(=O)CC(O)C(C)C)CC(O)CC1O [Compound of Example 5, (1S,3R,20S)-20-(3-hydroxy-4-methylpentanoyloxy)-9,10-secopregna-5Z,7E,10(19)-triene-1,3-diol] | 0.86 nM | 
C=C1C(=CC=C2CCCC3(C)C2CCC3C(C)OC(=O)CC(O)(CC)CC)CC(O)CC1O [Compound of Example 12, (1S,3R,20S)-20-(3-ethyl-3-hydroxypentanoyloxy)-9,10-secopregna-5Z,7E,10(19)-triene-1,3-diol] | 1.5 nM | 
